Patent US20130231472A1, “USE OF MOLECULAR MARKERS FOR THE PRECLINICAL PROFILING OF INHIBITORS OF ENZYMES HAVING HISTONE DEACETYLASE ACTIVITY” (priority 2002, published 2013)

Experiments:
acetylated histones = test: Histone acetylation in spleen after in vivo treatment (Western blot, immunohistochemistry); set-up: species or system mice; details: for histone acetylation, spleen whole cell extracts: VPA 400 mg/kg, three and six hours, FIG. 2A
Method: FIG. 2: (A) Secondary acute promyelocytic leukemias were induced in mice as described above. (A) Leukemic mice or healthy mice (Ctrl) were then treated with placebo or VPA (400 mg/kg) for three and six hours. Mice were then sacrificed, whole cell extracts were prepared from the spleen (with >70% leukemic infiltration), and analyzed by SDS-PAGE followed by Western blot analysis using commercially available antibodies against acetylated histone H3. (B) Immunohistochemistry analysis of VPA-treated leukemic mice using a monoclonal antibody against acetylated histones.

[1] = tested on: splenocytes from leukemic mice (>75% blasts); test: Apoptosis of cultured leukemic splenocytes/APL blasts (propidium iodide staining); assay type: cell-based; details: VPA 1 mM, 48 hours, FIG. 3B
Method: (§1) FIG. 3: (A) Secondary acute promyelocytic leukemias were induced in mice as described above. Leukemic mice were then treated with placebo (Ctrl), or VPA (400 mg/kg every 12 hours). Mice were sacrificed 48 hours after beginning of treatments, and then leukemic spleens were fixed and either stained for histological examination (hematoxylin-eosyn, left panels), or analyzed for the presence of apoptotic cells (TUNEL assay, right panels). (B) Secondary leukemias were obtained as above. Mice were sacrificed when leukemic invasion of peripheral organs was >75% (spleen). Splenocytes from healthy mice (taken as control, left panel), or from leukemic mice (>75% blasts, right panel) were put in culture and then treated with VPA (1 mM) for 48 hours. At the end of the treatment, apoptosis was measured by propidium iodide staining. The sub-G1 area indicates the hypodiploid DNA peak corresponding to cells with fragmented DNA undergoing apoptosis.
FIG. 5: Leukemic blasts were obtained from spleens of secondary leukemic mice with a >75% invasion of tumor cells, as assessed by histological examination. Cells were put in culture and treated with VPA (1 mM) for 48 hours, in the absence or in the presence of the indicated TRAIL and/or caspase 8 inhibitors as indicated. At the end of the treatment, apoptosis was measured as described above.

[2] = tested on: splenocytes from healthy mice; test: Apoptosis of cultured normal splenocytes (propidium iodide staining); assay type: cell-based; details: VPA 1 mM, 48 hours, FIG. 3B
Method: as §1

HDAC-2 [3] = test: HDAC-2 protein levels in K562 leukemia cells; assay type: cell-based, human
HDAC-2 [4] = test: HDAC-2 protein levels in NIH3T3 cells; assay type: cell-based, mouse
HDAC-1 = HDAC-1 protein levels (Westernblot, reference); assay type: cell-based; details: 1 mM VPA; FIG. 6A; in some experiments a transient induction
Method: FIG. 6: (A) F9 teratocarcinoma or HEK293T embryonic kidney cells were exposed for indicated times to 1 mM VPA. Protein levels of HDAC-2 and HDACs 1 or 3 for reference (HDAC8; N-CoR and Sin3 as data not shown) were determined by Westernblot analysis. […] (C) The effect of other HDAC inhibitors on the amount of HDAC-2 protein was determined by using TSA (100 nM) in a time course analysis in F9 cells (left panel). The HDAC inhibitors TSA (100 nM), trapoxin (TPX, 10 nM), butyrate (1.5 mM) or MS275 (5 μM) were tested at a single time of exposure in HEK293T cells (right panel).

HDAC-2 mRNA [5] = test: HDAC-2 mRNA levels in F9 cells (Northern blot); assay type: cell-based, murine; details: 1 mM VPA, FIG. 7
Method: (§2) FIG. 7: F9 cells or HEK 293T cells were treated for indicated times with 1 mM VPA and the levels of HDAC-2 mRNA were determined by Northern blot analysis from 5 μg polyA^+ RNA.

HDAC-2 mRNA [6] = test: HDAC-2 mRNA levels in HEK293T cells (Northern blot); assay type: cell-based, human; details: 1 mM VPA, FIG. 7
Method: as §2

HDAC-2 [7] = test: HDAC-2 pulse labeling and pulse-chase analysis in F9 cells; assay type: cell-based, murine; details: 1 mM VPA pretreatment 24 h
Method: (§3) FIG. 8: Synthesis and degradation rate of HDAC-2 were analyzed by pulse metabolic labeling with ^35S-methionine and pulse-chase analyses. ^35S-labelled HDAC-2 was detected by HDAC-2 specific immune precipitation followed by SDS-PAGE separation and autoradiography. (A) Pulse labeling for 1 h was performed in F9 and HEK293T cells which had been left untreated or were pretreated with 1 mM VPA for 24 h. (B) For pulse chase analysis cells were left untreated or pretreated for 24 h with 1 mM VPA and labeled with ^35S-methionine for an additional hour in the absence or presence of VPA. After removal of ^35S-methionine and addition of non-labeled methionine the elimination of radiolabeled HDAC-2 was followed over a period of 6 h. A pulse chase analysis was also performed in HEK293T cells without VPA pretreatment and addition of VPA (indicated by the (+) row) only at the time when the chase period was started. From HEK293T cell extracts also HDAC-3 was precipitated for reference.

HDAC-2 [8] = test: HDAC-2 pulse labeling and pulse-chase analysis in HEK293T cells; assay type: cell-based, human
Method: as §3

Ubc8 = Ubc8 expression in F9 cells (Northern blot, real time PCR); assay type: cell-based, murine; details: 1 mM VPA, FIG. 11
Method: FIG. 11 (A) F9 cells were treated for indicated times with 1 mM VPA and abundance of Ubc8 mRNA was determined by Northern blot analysis from 5 μg polyA^+ mRNA with a probe drived from the 3′-UTR of the cDNA. GAPDH mRNA was determined as reference. Phosphorimager analysis was performed for quantitative evaluation and relative values normalized for GAPDH are presented below the graph. One of two experiments with similar results is shown. (B) Ubc8 mRNA was also determined by real time PCR assuming an 1.5-fold amplification per cycle. The amplicon was part of the coding sequence of the Ubc8 mRNA. F9 cells were treated for 17 h with 1 mM VPA (V) or 100 nM TSA (T). Results were normalized for GAPDH expression. Average values ± range of duplicate determinations are shown.

RLIM = RLIM protein levels in HEK293T cells (Westernblot); assay type: cell-based, human; details: 24 hours, VPA 0.5, 1.5 or 5 mM, TSA 30, 100 or 300 nM, FIG. 12
Method: FIG. 12 (A) RLIM protein levels were determined by Westernblot analysis after treatment of HEK293T cells for 24 hours with the HDAC inhibitors VPA (0.5, 1.5, or 5 mM), TSA (30, 100 or 300 nM) or a combination of VPA (1.5 mM) and TSA (100 nM). Actin protein levels are shown as a control for equal loading. (B) RLIM protein levels were determined by Westernblot analysis after treatment of HEK293T cells for 24 hours with the HDAC inhibitor TSA (100 nM), the proteasome inhibitor ALLN (2.5 μM) or a combination of both. Actin protein levels are shown as a control for equal loading.

CCCC(CCC)C(=O)O [VPA, Valproic acid]
histone acetylation, spleen whole cell extracts (acetylated histones; leukemic mice (>70% leukemic infiltration)): enhanced levels of histone acetylation | histone acetylation by immunohistochemistry (acetylated histones; leukemic mice, monoclonal antibody against acetylated histones, FIG. 2B): dramatic increase of histone acetylation in all cells | histone acetylation, spleen whole cell extracts (acetylated histones; normal mice): enhanced levels of histone acetylation | apoptosis (propidium iodide, sub-G1) [1]: induces massive apoptosis of leukemic cells | apoptosis (propidium iodide, sub-G1) [2]: unable to induce apoptosis of normal splenocytes | HDAC-2 protein levels (HDAC-2 [3]): reduced | HDAC-2 protein levels (HDAC-2 [4]): reduced | HDAC-1 protein levels (HDAC-1): not reduced | HDAC-2 mRNA levels (HDAC-2 mRNA [5]): no response of HDAC-2 mRNA levels | HDAC-2 mRNA levels (HDAC-2 mRNA [6]): no response of HDAC-2 mRNA levels | HDAC-2 synthesis rate (35S-methionine pulse labeling) (HDAC-2 [7]; FIG. 8A): No substantial difference in HDAC-2 synthesis rate | half-life of HDAC-2 (pulse-chase) (HDAC-2 [7]; FIG. 8B): substantially decreased | HDAC-2 synthesis rate (35S-methionine pulse labeling) (HDAC-2 [8]; 1 mM VPA pretreatment 24 h, FIG. 8A): No substantial difference in HDAC-2 synthesis rate | half-life of HDAC-2 (pulse-chase) (HDAC-2 [8]; 1 mM VPA pretreatment 24 h, FIG. 8B): substantially decreased | HDAC-2 protein degradation rate (HDAC-2 [8]; VPA added only at the time of chase, FIG. 8B): no effect | expression of the gene encoding Ubc8 (Ubc8): inducible by VPA | RLIM protein levels / degradation (RLIM): without changing expression of the E3 ubiquitin ligase, RLIM
